How the values were obtained:
P. aeruginosa biofilms [1] = experiment: Microscopy (confocal, brightfield) of biofilm architecture and microcolony void formation; assay type: cell-based, Pseudomonas aeruginosa; conditions: 4-day biofilms, PDH 10 mU plus 500 uM SNP as NO source, 16 h
Description: To determine how exposure to PDH accomplished a reduction in the biofilm biomass, the remaining biofilm architecture was visually analyzed by confocal microscopy. Relative to untreated biofilms, biofilms exposed to PDH were not only characterized by an overall reduced biofilm biomass but by microcolonies having central voids (FIGS. 2E3 and 2F2). Void formation has previously linked with biofilm dispersion, a process in which sessile, surface-attached organisms liberate themselves from the biofilm to return to the planktonic state. […] In contrast, the vast majority of microcolonies by untreated biofilms were intact (FIG. 2E1), with only less than 8% of the microcolonies featuring central void formation (FIG. 2G). […]
Differences in the biofilm architecture were visualized by crystal violet staining or microscopy (brightfield, confocal laser scanning). Differences in drug susceptibility were evaluated by viability count.
FIGS. 15A-15F show the effect of PDH nanoparticles (NP) on biofilms. […] Biofilm biomass was quantitatively determined by confocal microscopy and COMSTAT analysis prior/post 24 h PDH treatment. […]
Biofilms were grown for 4 days in 24-well polystyrene plates in five-fold diluted LB. […] Number of microcolonies as percent of the total colonies counted per treatment group is shown. […]

P. aeruginosa biofilms [2] = experiment: Biofilm susceptibility assay, viability count; assay type: cell-based, Pseudomonas aeruginosa; conditions: 4-day biofilms, tobramycin 100 μg/ml, PDH 10 mU where present, overnight
Description: It is well established that planktonic cells are more susceptible to antimicrobial agents than their counterparts growing as a biofilm, and that dispersion coincides with bacteria transitioning to the planktonic mode of growth. […] P. aeruginosa biofilms grown for 4 days in 24-well plates were exposed to 100 μg/ml tobramycin in the absence of presence of PDH. Following overnight incubation, the number of viable biofilm cells were determined using viability count. […] Tobramycin in the presence of 10 mU PDH coincided with a reduction in the biofilm biomass to 3.5×10^3 cells/biofilm (FIG. 12A), with the reduction in the viable cells being equivalent to an overall 5.9-log reduction in the biofilm biomass relative to untreated biofilms. […] For susceptibility assays, biofilms were grown as for dispersion assays, but following 4 days of growth, the growth medium was supplemented the aminoglycoside antibiotic tobramycin (100 μg/ml), 10 mU porcine pyruvate dehydrogenase, and cofactors (1 mM b-NAD, 1 mM sodium Co-A, 20 μM TPP). Untreated biofilms or biofilms only exposed to cofactors alone were used as controls. Differences in the biofilm architecture were visualized by crystal violet staining or microscopy (brightfield, confocal laser scanning). Differences in drug susceptibility were evaluated by viability count.

P. aeruginosa ATCC 27312 = experiment: Porcine burn wound biofilm infection model; assay type: in vivo, Pseudomonas aeruginosa
Description: The well-known clinical burn wound isolate P. aeruginosa ATCC 27312 was employed.
Burn wounds were inoculated with 25 μl of a standardized P. aeruginosa suspension harboring 10^6 CFU/ml and allowed to establish biofilms for 24 h. Infected wounds were subsequently treated daily with 100 and 200 mU PDH in the absence of presence of 100 μg/ml tobramycin. Untreated wounds and wounds only exposed to carrier solution were used as controls. Following 3 and 6 days of treatment, bacterial cells present in wounds were harvested using a flush and scrub technique that separates biofilm bacteria from planktonic bacteria, by flushing the non-adherent (planktonic) bacteria off the wound, followed by scrubbing of the wound to remove adherent biofilm-associated bacteria from the wound bed.
Second degree porcine burn wounds were infected with P. aeruginosa ATCC® 27312™. […] Then, bacterial cells were removed from the wounds and the number of viable cells, as shown in (CFU) per wound determined using viability counts. […] Experiments are representative data obtained using 3 wounds per treatment group (n=3). Error bars represent standard deviation.

P. aeruginosa biofilms [3] = experiment: Biofilm dispersion in 24-well plates, crystal violet staining of remaining biofilm biomass; assay type: cell-based, Pseudomonas aeruginosa; conditions: controls: heat-inactivated PDH increasing concentrations; cofactors; acetyl-CoA 0.2 mM; NADH 2 mM; lactate 10 mM
Description: P. aeruginosa biofilms grown for 4 days in 24-well plates were exposed to pyruvate-depleting conditions. This was accomplished by exposing biofilms to increasing concentration of the enzyme pyruvate dehydrogenase (PDH) having a specific activity of 0.57 U/mg. PDH catalyzes the conversion of pyruvate to acetyl-CoA in the presence of CoA and NAD^+. Specifically, biofilms were exposed to 5, 10, and 20 mU (8.7, 17.4, and 32.8 mg enzyme) of PDH in the presence of NAD^+ and CoA. Biofilms grown in LB but left untreated were used as controls. Following overnight incubation, the remaining biofilm was stained using crystal violet.
Biofilms were grown in a 24-well plate system modified from the procedure described by Caiazza and O'Toole (2004) to elucidate the role of pyruvate in biofilm formation and biofilm dispersion.
Overnight cultures grown in LB medium were adjusted to an OD600 of 0.05 in fresh 5-fold diluted LB VBMM and grown at 37° C. and rotated at 220 r.p.m. in 24-well microtiter plates at a 45° angle, ensuring that the bottom of the wells is at the air-liquid interface, with the medium exchanged every 12 h.
For biofilm dispersion, biofilms were first grown for 4 days after which time the growth medium was supplemented with 10 mU porcine pyruvate dehydrogenase, cofactors (1 mM b-NAD, 1 mM sodium Co-A, 20 μM TPP) and allowed to incubate for an additional 16 h.

SMILES: [N]=O [nitric oxide]
- effect on PDH-induced dispersion of biofilms (microcolonies with void formation) (P. aeruginosa biofilms [1]): can enhance

SMILES: NC[C@H]1O[C@H](O[C@H]2[C@H](O)[C@@H](O[C@H]3O[C@H](CO)[C@@H](O)[C@H](N)[C@H]3O)[C@H](N)C[C@@H]2N)[C@H](N)C[C@@H]1O [tobramycin]
- log reduction of the biofilm biomass (viable cells) relative to untreated (P. aeruginosa biofilms [2]): 2.5 log
- number of viable cells remaining (P. aeruginosa biofilms [2]; untreated 2.4×10^8): 1.2×10^5 cells per biofilm
- log reduction of P. aeruginosa biofilms present in porcine burn wounds (P. aeruginosa ATCC 27312; as stated in the summary, tobramycin with or without pyruvate-depleting conditions): 2.5 log
- log reduction in viable biofilm cells (scrub) relative to untreated (P. aeruginosa ATCC 27312; tobramycin 100 μg/ml daily): 2 log

SMILES: CC(=O)SCCNC(=O)CCNC(=O)[C@H](O)C(C)(C)COP(=O)(O)OP(=O)(O)OC[C@H]1O[C@@H](n2cnc3c(N)ncnc32)[C@H](O)[C@@H]1OP(=O)(O)O [acetyl-CoA]
- effect on biofilm biomass relative to untreated biofilms (P. aeruginosa biofilms [3]): did not result in increased biofilm biomass accumulation

SMILES: NC(=O)c1ccc[n+]([C@@H]2O[C@H](COP(=O)([O-])OP(=O)(O)OC[C@H]3O[C@@H](n4cnc5c(N)ncnc54)[C@H](O)[C@@H]3O)[C@@H](O)[C@H]2O)c1 [NAD+]
- effect on biofilm biomass relative to untreated biofilms (P. aeruginosa biofilms [3]): no effect

SMILES: CC(O)C(=O)O (stereo not drawn) [lactate]
- effect on biofilm biomass relative to untreated biofilms (P. aeruginosa biofilms [3]): no difference

SMILES: NC(=O)C1=CN([C@@H]2O[C@H](COP(=O)(O)OP(=O)(O)OC[C@H]3O[C@@H](n4cnc5c(N)ncnc54)[C@H](O)[C@@H]3O)[C@@H](O)[C@H]2O)C=CC1 [NADH]
- effect on biofilm biomass relative to untreated biofilms (P. aeruginosa biofilms [3]): did not result in increased biofilm biomass accumulation
